Measurements from patent US7205295B2, “Benzoxazin-3-ones and derivatives thereof as therapeutic agents” (Warner-Lambert Company LLC, priority 2002, dated 2007).

Target: T1, PI3Kγ (p101/p110γ protein) (Homo sapiens, UniProt P48736)
T1 construct: HA; made in house; host or cells: Spodoptera frugiperda (Sf9) cells, baculovirus co-infection
Assay: PI3Kγ In Vitro Kinase Assay
Type: biochemical
Settings: purified recombinant p101/p110γ with G protein β1/γ2 subunits; 20 μM ATP, 25 μM PIP2; 20 minutes at room temperature
Method in brief: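 Reactions ran 20 min at room temperature, pairing lipid micelles (25 μM PIP2, 300 μM PE, 0.02% Na-cholate, 10 mM MgCl2) with 20 μM ATP including [γ-32P]ATP. The enzyme was recombinant p101/p110γ (2.7 nM) with G protein β1/γ2 (57.7 nM). [32P]PIP3 product was stopped with H3PO4, filtered and scintillation counted.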

T1 sequence (P48736 whole entry, species assumed): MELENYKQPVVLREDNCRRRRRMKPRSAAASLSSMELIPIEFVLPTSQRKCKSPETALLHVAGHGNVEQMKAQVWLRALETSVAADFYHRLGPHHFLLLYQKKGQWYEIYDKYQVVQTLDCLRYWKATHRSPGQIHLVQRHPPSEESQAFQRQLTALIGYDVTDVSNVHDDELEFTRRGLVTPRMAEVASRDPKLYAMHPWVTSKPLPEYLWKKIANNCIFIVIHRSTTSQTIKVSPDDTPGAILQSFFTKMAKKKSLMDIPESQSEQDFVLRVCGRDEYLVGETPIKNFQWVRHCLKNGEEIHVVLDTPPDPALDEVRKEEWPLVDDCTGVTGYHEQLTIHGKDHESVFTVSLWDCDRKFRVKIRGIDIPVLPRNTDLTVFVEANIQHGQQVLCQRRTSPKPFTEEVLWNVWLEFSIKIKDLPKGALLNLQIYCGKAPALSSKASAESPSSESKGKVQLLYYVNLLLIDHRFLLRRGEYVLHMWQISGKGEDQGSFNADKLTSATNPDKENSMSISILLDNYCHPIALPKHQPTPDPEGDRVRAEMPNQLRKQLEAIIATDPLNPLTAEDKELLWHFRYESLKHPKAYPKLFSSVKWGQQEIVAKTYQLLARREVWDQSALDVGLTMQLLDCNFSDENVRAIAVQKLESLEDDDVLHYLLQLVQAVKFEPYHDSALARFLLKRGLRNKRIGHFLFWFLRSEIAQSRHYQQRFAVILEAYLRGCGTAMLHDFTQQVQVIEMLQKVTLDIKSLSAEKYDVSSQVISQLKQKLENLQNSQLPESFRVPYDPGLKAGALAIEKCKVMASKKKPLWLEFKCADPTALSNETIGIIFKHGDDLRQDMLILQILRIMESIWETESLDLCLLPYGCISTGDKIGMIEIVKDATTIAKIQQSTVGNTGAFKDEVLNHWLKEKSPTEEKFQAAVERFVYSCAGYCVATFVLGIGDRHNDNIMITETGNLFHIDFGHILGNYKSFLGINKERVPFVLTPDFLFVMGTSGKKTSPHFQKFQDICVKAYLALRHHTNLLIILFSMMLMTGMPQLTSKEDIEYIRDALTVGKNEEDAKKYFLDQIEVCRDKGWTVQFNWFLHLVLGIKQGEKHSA
T1 sequence (Q8WYR1 whole entry partner, species assumed): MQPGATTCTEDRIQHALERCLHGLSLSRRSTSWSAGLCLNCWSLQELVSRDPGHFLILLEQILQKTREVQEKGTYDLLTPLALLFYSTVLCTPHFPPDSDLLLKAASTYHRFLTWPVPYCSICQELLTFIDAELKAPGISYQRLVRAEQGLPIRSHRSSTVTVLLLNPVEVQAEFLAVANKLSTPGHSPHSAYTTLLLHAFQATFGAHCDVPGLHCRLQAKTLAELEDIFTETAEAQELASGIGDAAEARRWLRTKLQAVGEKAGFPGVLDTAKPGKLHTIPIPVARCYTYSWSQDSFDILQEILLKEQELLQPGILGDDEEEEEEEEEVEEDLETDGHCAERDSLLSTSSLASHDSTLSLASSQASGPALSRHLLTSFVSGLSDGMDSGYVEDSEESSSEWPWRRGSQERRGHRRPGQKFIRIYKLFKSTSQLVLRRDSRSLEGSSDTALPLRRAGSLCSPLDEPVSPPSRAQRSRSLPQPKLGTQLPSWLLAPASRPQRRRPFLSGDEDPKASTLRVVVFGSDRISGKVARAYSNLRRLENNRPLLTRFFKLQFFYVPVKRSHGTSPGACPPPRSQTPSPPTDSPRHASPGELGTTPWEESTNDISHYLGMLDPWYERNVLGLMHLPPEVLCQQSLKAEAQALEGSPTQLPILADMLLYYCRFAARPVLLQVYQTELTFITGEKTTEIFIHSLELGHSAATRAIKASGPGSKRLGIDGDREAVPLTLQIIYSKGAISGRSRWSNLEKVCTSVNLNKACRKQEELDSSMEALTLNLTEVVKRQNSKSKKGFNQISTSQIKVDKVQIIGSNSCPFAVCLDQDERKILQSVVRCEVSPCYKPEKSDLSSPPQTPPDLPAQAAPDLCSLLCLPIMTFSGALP

IC50 [nM] | SMILES
21 | CCCCN1CCN(Cc2ccc(CN3C(=O)COc4ccc(C=C5SC(=S)NC5=O)cc43)cc2)CC1 [Example 77, 4-[4-(4-Butyl-piperazin-1-ylmethyl)-benzyl]-6-(4-oxo-2-thioxo-thiazolidin-5-ylidenemethyl)-4H-1,4-benzoxazin-3-one]
57 | CCN(CC)Cc1ccc(CN2C(=O)COc3c(Cl)cc(C=C4SC(=S)NC4=O)cc32)cc1 [Example 78, 8-Chloro-4-(4-diethylaminomethyl-benzyl)-6-(4-oxo-2-thioxo-thiazolidin-5-ylidenemethyl)-4H-1,4-benzoxazin-3-one]
20 | O=C1NC(=S)SC1=Cc1cc(Cl)c2c(c1)N(Cc1ccc(CN3CCCCC3)cc1)C(=O)CO2 [Example 79, 8-Chloro-6-(4-oxo-2-thioxo-thiazolidin-5-ylidenemethyl)-4-(4-piperidin-1-ylmethyl-benzyl)-4H-1,4-benzoxazin-3-one; compound with Toluene-4-sulfonic acid]
17 | O=C1NC(=S)SC1=Cc1cc(Cl)c2c(c1)N(Cc1ccc(CN3CCOCC3)cc1)C(=O)CO2 [Example 80, 8-Chloro-4-(4-morpholin-4-ylmethyl-benzyl)-6-(4-oxo-2-thioxo-thiazolidin-5-ylidenemethyl)-4H-1,4-benzoxazin-3-one]
29 | O=C1NC(=S)SC1=Cc1ccc2c(c1)N(Cc1ccccc1)C(=O)CS2 [Example 81, 4-Benzyl-6-(4-oxo-2-thioxo-thiazolidin-5-ylidenemethyl)-4H-1,4-benzothiazin-3-one]
3740 | CC(C)(C)c1cc(CN2C(=O)CSc3ccc(C=C4SC(=S)NC4=O)cc32)cc(C(C)(C)C)c1 [Example 82, 4-(3,5-Di-tert-butyl-benzyl)-6-(4-oxo-2-thioxo-thiazolidin-5-ylidenemethyl)-4H-1,4-benzothiazin-3-one]
260 | O=C1CSc2ccc(C=C3SC(=S)NC3=O)cc2N1 [Example 83, 6-(4-Oxo-2-thioxo-thiazolidin-5-ylidenemethyl)-4H-1,4-benzothiazin-3-one]
60 | O=C1COc2ccc(C=C3OC(=S)NC3=O)cc2N1 [Example 84, 6-(4-Oxo-2-thioxo-oxazolidin-5-ylidenemethyl)-4H-benzo[1,4]oxazin-3-one]
21 | CC(C)(C)c1cc(CN2C(=O)COc3ccc(C=C4SC(=O)NC4=O)cc32)cc(C(C)(C)C)c1 [Example 85, 5-[4-(3,5-Di-tert-butyl-benzyl)-3-oxo-3,4-dihydro-2H-1,4-benzoxazin-6-ylmethylene]-thiazolidine-2,4-dione]
12300 | O=C1CC(=Cc2ccc3c(c2)NC(=O)CO3)C(=O)N1 [Example 86, 3-(3-Oxo-3,4-dihydro-2H-benzo[1,4]oxazin-6-ylmethylene)-pyrrolidine-2,5-dione]
16100 | O=C1COc2ccc(C=C3NC(=O)NC3=O)cc2N1 [Example 87, 5-(3-Oxo-3,4-dihydro-2H-benzo[1,4]oxazin-6-ylmethylene)-imidazolidine-2,4-dione]
5 | Cc1ccc(CN2C(=O)COc3ccc(C=C4SC(=S)NC4=O)cc32)c(C)c1 [Example 100, 4-(2,4-Dimethyl-benzyl)-6-(4-oxo-2-thioxo-thiazolidin-5-ylidenemethyl)-4H-1,4-benzoxazin-3-one]
5 | Cc1cccc(CCN2C(=O)COc3ccc(C=C4SC(=S)NC4=O)cc32)c1 [Example 101, 6-(4-Oxo-2-thioxo-thiazolidin-5-ylidenmethyl)-4-[2-m-tolyl-ethyl]-4H-benzo[1,4]oxazin-3-one]
330 | C[C@@H]1Oc2ccc(C=C3SC(=S)NC3=O)cc2N(CCc2ccc(Cl)c(Cl)c2)C1=O [Example 109, (S)-4-[2-(3,4-Dichloro-phenyl)-ethyl]-2-methyl-6-(4-oxo-2-thioxo-thiazolidin-5-ylidenmethyl)-4H-benzo[1,4]oxazin-3-one]
55 | O=C1NC(=S)SC1=Cc1cc(Cl)c2c(c1)N(CCc1ccc(Cl)c(Cl)c1)C(=O)CO2 [Example 110, 8-Chloro-4-[2-(3,4-dichloro-phenyl)-ethyl]-6-(4-oxo-2-thioxo-thiazolidin-5-ylidenmethyl)-4H-benzo[1,4]oxazin-3-one]
